Source: patent US12378508B2, “Organ-on-chips that mimic human pregnancy and parturition” (The Texas A&M University System, priority 2020, dated 2025)

Legend:
AEC chamber = test: LPS induced inflammation propagation in FMI-OOC, cytokines in cell supernatant; format: cell-based
Procedure: (§1) FIG. 12A illustrates after lipopolysaccharide (LPS) treatment in the AEC chamber for 24, 48, or 72 hours, cell supernatants were collected from each cell chamber within the FMI-OOC to document LPS induced inflammation propagation. LPS induced an increase in AEC IL-8 production at 24 and 48 hours, which reached the maternal decidua chamber by 72 hours, causing an increase in IL-8. Documenting LPS induced fetal inflammation can reach the maternal compartment in 72 hours within an FMI-OOC device.
(§2) FIG. 12B illustrates after LPS treatment in the maternal decidua (DECI) chamber for 24, 48, or 72 hours, cell supernatants were collected from each cell chamber within the FMI-OOC to document LPS induced inflammation propagation. LPS induced an increase in DECI IL-6 production at 24, which reached the fetal AEC chamber by 24 hours, causing a rise in IL-8 that increased over 72 hours. Documenting LPS induced maternal inflammation can reach the fetal compartment in 72 hours within an FMI-OOC device.
(§3) The device described here expands the previously described two-chamber coculture model into a four-chamber coculture model to include both fetal and maternal cell components. The fetal membrane-decidua interface model (FMI-OOC) composed of four coculture compartments interconnected through arrays of microfluidic channels (FIG. 10 and FIG. 11). Here, three cell types from the fetal side (AEC, AMC, chorion mesenchymal cells (CMC)/chorion trophoblast (CT)) and one from the maternal side (decidua cells) were used, establishing the first OOC model that contains both fetal and maternal cells. Cell loading concentration into each chamber mimicked those of in utero cell ratios of the fetal membrane tissue. The microfluidic channel array prevents cells from flowing into the neighboring compartments during initial cell loading, allow localized drug treatment of each cell layer, and allow taking supernatant from each layer independently for local biochemical analysis. At the same time, these channels allow biochemicals to diffuse between the layers, and also permit cell migration and transition.

[1] = test system: maternal decidua (DECI) chamber; test: as above; format: cell-based
Procedure: as §1, §2, §3

[2] = test system: amnion epithelial cells (AECs); test: Cell migration through type IV collagen-filled microchannels of AM-OOC (bright field microscopy); format: cell-based, human; settings: coculture, OS (CSE) cotreatment in both chambers
From the text: Before using the AM-OOC, devices were washed 3 times with PBS and coated with Matrigel as previously described. The next day, devices were washed 3 times with complete DMEM-F12 medium before cell seeding. Primary cells were then trypsinized and stained with live cell dyes for green fluorescent protein (GFP) (for AEC; CellLight Histone 2B-GFP) or red fluorescent protein (RFP) (for AMC; CellLight Histone 2B-RFP) following the protocol provided by the company (10594 and 10595; Thermo Fisher Scientific, Waltham, MA, USA). Then, 120,000 AECs were loaded into the outer chamber, and 40,000 AMCs were loaded into the inner chamber of the AM-OOC. The AM-OOCs were incubated at 37° C. with 5% CO2 for 24 h before localized treatment (see next section).
To test the effect of OS on cellular transition in the amnion membrane, each AM-OOC was treated with one of the following for 48 h: 1) normal cell culture conditions (control DMEM-F12 medium); 2) OS conditions [induced by treating cells with cigarette smoke extract (CSE)] diluted 1:25 in AEC medium or diluted 1:75 in AMC medium; and 3) to verify the effect of OS, cells were cotreated with an OS inducer (CSE) and an antioxidant or stress signaler p38 MAPK inhibitor [N-acetyl-L-cysteine (NAC, 15 mM, A7250; MilliporeSigma] (23, 29) and SB203580 ([…], S8307; MilliporeSigma) (23, 29), a p38 MAPK inhibitor and a known inducer of EMT. […]

Question: Which results are given for lipopolysaccharide [LPS]?
Answer: AEC IL-8 production (AEC chamber; LPS treatment in the AEC chamber, at 24 and 48 hours): increase; IL-8 in fetal AEC chamber (AEC chamber; LPS treatment in the maternal decidua (DECI) chamber, from 24 hours, increased over 72 hours): rise; IL-8 in maternal decidua chamber ([1]; LPS treatment in the AEC chamber, by 72 hours): increase; DECI IL-6 production ([1]; LPS treatment in the maternal decidua (DECI) chamber, at 24): increase

Question: How did the “effect on OS cotreatment-induced AEC transition, blocked migration and increased inflammation” value [2] turn out when `CC(=O)N[C@@H](CS)C(=O)O` [NAC, N-acetyl-L-cysteine] was run?
Answer: prevented
